Earlier results in patent US9011898B2, “Composition for active principles delivery containing a fatty acid excipient” (CID S.p.A., priority 2010, dated 2015).

Conditions: aqueous solutions

CO[C@H]1C[C@@H]2CC[C@@H](C)[C@@](O)(O2)C(=O)C(=O)N2CCCC[C@H]2C(=O)O[C@H]([C@H](C)C[C@@H]2CC[C@@H](O)[C@H](OC)C2)CC(=O)[C@H](C)/C=C(\C)[C@@H](O)[C@@H](OC)C(=O)[C@H](C)C[C@H](C)/C=C/C=C/C=C/1C [Sirolimus]
Stability in aqueous environments at neutral or basic pH with respect to acidic pH: less stable
